Where “and” joins values, the source holds several entries; their conditions need not be identical. Equal values may be shown once.

Common to all, as to type: in vivo
Test [1] deals with Arabidopsis HST transgenic tobacco plants. The test is described as follows: Glasshouse spray test, Arabidopsis HST transgenic tobacco. Particulars: D2 line (Arabidopsis HST, segregating T1), individual plants.
The test system of test [2] is tobacco plants expressing Pseudomonas fluorescens HPPD. Kind of test: Glasshouse spray test, Pseudomonas HPPD transgenic tobacco. Particulars: C2 line (Pseudomonas HPPD, T2), individual plants. From the text: Tobacco plants expressing the wild-type HPPD gene of Pseudomonas fluorescens strain 87-79 under operable control of the double enhanced 35S CMV promoter region, Nos3′ terminator and TMV translational enhancer were provided as detailed in Example 4 of WO0246387.
(§1) Seed of wild-type tobacco plants, C2 tobacco plants and of the T1 progeny of a further Arabidopsis-HST expressing tobacco line, D2 were planted out in 3 inch pots, grown on, sprayed with compounds 1.1, 2.30 and 3.6 at the rates shown in table 5. Percent damage scores were assessed at 7 DAT. Aside from the presumptive non-transgenic segregants the D2 line containing the Arabidopis HST expression construct offered the highest level of tolerance to the two HST herbicides with the Psuedomonas HPPD, C2 line, offering only marginal tolerance under the conditions of this test.
Transgenic lines of tobacco, soyabean and corn etc. can be engineered to express various heterologous HPPDs derived from, for example Avena (SEQ ID #26), Wheat (SEQ ID #27), Pseudomonas fluorescens (SEQ ID # 25) and Shewanella colwelliana (SEQ ID #28) as, for example, described in WO 02/46387.
(§2) Single copy events amongst the T1 plant lines are identified by their 3:1 segregation ratio (wrt kanamycin and or herbicide) and by quantitative RT-PCR. Seed from the thus selected T1 tobacco (var Samsun) lines are sown in 3 inch diameter pots containing 50% peat, 50% John Innes soil no 3. After growth to the 3 leaf stage, plants are sprayed, as described above, in order to test for herbicide tolerance relative to like-treated non-transgenic tobacco plants.
(§3) Control tobacco plants and transgenic T1 plants expressing either the Pseudomonas or the wheat HPPD gene are sprayed at 37, 111, 333 and 1000 g/ha rates of HST inhibitors and, for example, compound 2.3.
(§4) Plants are assessed and scored for % damage at 16 DAT.

Test [3] concerns wild-type (WT) Samsun tobacco. Kind of test: Glasshouse spray test, wild-type tobacco. The following applies: for % damage at 7 DAT: WT Samsun, individual plants. As for the experimental part:
Rooted transgenic T0 plantlets are transferred from agar and potted into 50% peat, 50% John Innes soil no 3 or, for example, MetroMix® 380 soil (Sun Gro Horticulture, Bellevue, Wash.) with slow-release fertilizer in 3 inch round or 4 inch square pots and left regularly watered to establish for 8-12 d in the glass house. Glass house conditions are about 24-27° C. day; 18-21° C. night and approximately a 14 h (or longer in UK summer) photoperiod. Humidity is ˜65% and light levels up to 2000 μmol/m^2 at bench level. Once new tissue emerges and plants they have reached the 2-4 leaf stage some of the clones from each event are sprayed with test chemicals dissolved in water with 0.2-0.25% X-77 surfactant and sprayed from a boom on a suitable track sprayer moving at 2 mph in a DeVries spray chamber with the nozzle about 2 inches from the plant tops. Spray volume is suitably 25 gallons per acre or, for example, […].
Test chemicals are, for example, compound 2.3 at 500 g/ha. At the same time that transgenic plants are sprayed so too are w/t Samsun tobacco plants grown from seed as well as non-transgenic plants regenerated from tissue culture and non-transgenic tissue culture escapes. Damage is assessed versus unsprayed control plants of like size and development.
6 Seed from w/t Samsun tobacco and 8 T1 seed from events B8 and G9 are also planted out in 3 inch pots, grown on for 7 to 12 d and then, as described in the foregoing examples, the plantlets spray tested for resistance to various chemicals and assessed at 14 DAT. Chemicals are formulated in 0.2% X77 and sprayed at a spray volume of 200 l/ha.
as §1, §2, §3, §4

Regarding `CC(C)C(=O)OC1=C(c2cc(Cl)ccc2C(F)(F)F)S(=O)(=O)N(CC(F)F)c2nccnc21` [Compound 3.6], the “% damage at 7 DAT” value in test [1] (150 gai/ha) is 10% (2×) and 70% (2×) and 30% and 20% and 65% and 25%; in test [1] (300 gai/ha) it was 65% and 35% and 7% and 85% (2×) and 80% and 75% and 40%; in test [1] (450 gai/ha), 55% and 25% (2×) and 65% (2×) and 70% and 80% and 75%; in test [2] (150 gai/ha) it was 60%; in test [2] (300 gai/ha) it was 65% (3×) and 70%; in test [2] (450 gai/ha), 65%. Further, the “% damage at 7 DAT” value in test [3] (150 gai/ha) is 80%; in test [3] (300 gai/ha), 80% (2×) and 75%; in test [3] (450 gai/ha), 85%. In test [3] (300 g/ha, WT, reps), the “percent damage at 6 DAT” value was 65%.

For the origin of these results see patent US20110173718A1, “HERBICIDE TOLERANT PLANTS” (SYNGENTA CROP PROTECTION, INC., priority 2008, published 2011).
